# Data taken from patent US7531533B2, “6-Membered heterocyclic compound and use thereof” (Asahi Kasei Pharma Corporation, priority 2005, dated 2009).
# Legend:
# human EP3 receptor = target: T1, human EP3 receptor (Homo sapiens, UniProt P43115); assay: [3H]PGE2 receptor binding test, human EP3 receptor expressing HEK293 membrane fraction; details: [3H]PGE2 1 nM
# T1 construct: expressed in transfected cells
# T1 sequence (P43115 1-390): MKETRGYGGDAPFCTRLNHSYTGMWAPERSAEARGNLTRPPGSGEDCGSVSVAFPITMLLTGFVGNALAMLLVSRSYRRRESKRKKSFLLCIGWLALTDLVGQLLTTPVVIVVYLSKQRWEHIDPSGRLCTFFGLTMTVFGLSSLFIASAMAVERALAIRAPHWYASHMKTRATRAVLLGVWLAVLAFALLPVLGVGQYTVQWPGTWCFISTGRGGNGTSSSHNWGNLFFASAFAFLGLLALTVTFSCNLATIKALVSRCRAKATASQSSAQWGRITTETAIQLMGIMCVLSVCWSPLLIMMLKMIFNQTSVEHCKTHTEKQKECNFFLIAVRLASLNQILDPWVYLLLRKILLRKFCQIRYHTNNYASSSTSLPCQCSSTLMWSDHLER
# Procedure: (§1) Receptor Binding Test by Using Human EP Receptor Expressing Cells
# (§2) In order to evaluate the selectivity for each EP receptor subtype, which is considered to greatly influence on the side reaction of drugs, [^3H]PGE2 binding inhibitory activities of test compounds were measured in HEK293 in which human EP1, human EP2, human EP3, or human EP4 receptor was stably expressed.
# (§3) As a result of searching for prostaglandin E receptors using Refseq Database, the gene information of human EP1 (NM_000955), human EP2 (NM_000956), human EP3 (NM_198719), and human EP4 (NM_000958) was obtained. […] After the reaction, the reaction mixture was subjected to suction filtration under reduced pressure so that [^3H]PGE2 binding to the membrane fraction was trapped on Unifilter Plate GF/C (produced by Packard), and binding radioactivity was measured by using a liquid scintillator.
# (§4) The Kd value was obtained by Scatchard plot. […] The [^3H]PGE2 binding inhibitory activity of a test compound was measured by adding [^3H]PGE2 (1 nM) and a test compound at various concentrations. […]
# (§5) Further, HEK293 in which each of human EP1, human EP2, and human EP3 receptors was stably expressed was established, and a membrane fraction was prepared. […] The ratios of Ki value for human EP4 to Ki values for human EP1, human EP2, and human EP3 were calculated. […]
# crab-eating monkeys = assay: Intraocular pressure lowering action in crab-eating monkeys; type: in vivo, crab-eating monkey; details: 50 μl instilled, measured over 6 hours, 3 monkeys
# Procedure: Intraocular Pressure Lowering Action
# Male crab-eating monkeys with a body weight of 5 to 7.5 kg (5- to 10-year old) were used for the experiment. Example Compound Nos. IAH-H001a, IAH-H010, and IAH-H057 were each dissolved at various concentrations in water or physiological saline containing sodium hydroxide in an amount of the same equivalence as each compound. The intraocular pressure was measured immediately before a treatment with a test compound, then 50 μl of a solution containing each test compound was instilled, and the intraocular pressure was measured over time for 6 hours after the instillation. The intraocular pressure was measured under ketamine (5 to 10 mg/kg, intramuscular injection) anesthetization by using a pneumatic applanation tonometer. Each test compound was used in 3 monkeys, and the intraocular pressures before and after the instillation were compared.
# [1] = test system: dextran sulfate-induced inflammatory intestinal disease model mice; assay: Action in dextran sulfate-induced inflammatory intestinal disease model mice; type: in vivo, mouse; details: 7% DSS drinking water 10 days; 0.1-100 mg/kg every day for 10 days
# Description: Action in Dextran Sulfate-Induced Inflammatory Intestinal Disease Model Mice
# 8-Week old female C57BL/6J mice were allowed to take 7% dextran sulfate (henceforth abbreviated as “DSS”) solution as drinking water ad libitum for 10 days to prepare inflammatory intestinal disease model. From the start of DSS intake, Example Compound Nos. IAH-H001a, IAH-H010 and IAH-H057 each dissolved in a suitable solvent (20 to 50% PEG 400 or 15% cyclodextrin) in the same manner as in Formulation Example 1 were given at appropriate doses (0.1 mg/kg, 1 mg/kg, 10 mg/kg, or 100 mg/kg) every day for 10 days (henceforth referred to as “medicament-treated groups”). Further, the solvent used for dissolving the compounds of the present invention was solely given to the mice made to take DSS (henceforth referred to as “solvent group”), and the solvent used for dissolving the compounds of the present invention was solely given every day to the mice allowed to take distilled water not containing DSS as drinking water ad libitum (henceforth referred to as “normal group”). The number of mice in each group was 10. After the start of intake of drinking water, body weight and clinical score were measured every other day. […] The mice were sacrificed 10 days after the start of intake of DSS containing water, and weights of the intestinal tracts of the large intestines were measured.
# human EP2 receptor = target: T2, human EP2 receptor (Homo sapiens, UniProt P43116); assay: [3H]PGE2 receptor binding test, human EP2 receptor expressing HEK293 membrane fraction; details: [3H]PGE2 1 nM
# T2 construct: expressed in transfected cells
# Procedure: as §1, §2, §3, §4, §5
# human EP1 receptor = target: T3, human EP1 receptor (Homo sapiens, UniProt P34995); assay: [3H]PGE2 receptor binding test, human EP1 receptor expressing HEK293 membrane fraction; details: [3H]PGE2 1 nM
# T3 construct: expressed in transfected cells
# T3 sequence (P34995 1-402): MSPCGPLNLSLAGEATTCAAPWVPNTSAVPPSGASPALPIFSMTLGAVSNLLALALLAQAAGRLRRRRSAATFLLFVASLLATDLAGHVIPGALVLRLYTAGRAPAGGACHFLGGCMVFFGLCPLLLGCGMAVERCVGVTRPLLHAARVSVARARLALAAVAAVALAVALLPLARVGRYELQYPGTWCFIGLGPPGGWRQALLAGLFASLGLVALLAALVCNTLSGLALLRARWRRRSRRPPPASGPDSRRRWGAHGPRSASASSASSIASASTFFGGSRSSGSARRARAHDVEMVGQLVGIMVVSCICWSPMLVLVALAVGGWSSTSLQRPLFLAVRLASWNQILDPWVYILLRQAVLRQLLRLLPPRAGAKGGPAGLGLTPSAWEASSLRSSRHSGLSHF
# Procedure: as §1, §2, §3, §4, §5
# T2 sequence (P43116 whole entry): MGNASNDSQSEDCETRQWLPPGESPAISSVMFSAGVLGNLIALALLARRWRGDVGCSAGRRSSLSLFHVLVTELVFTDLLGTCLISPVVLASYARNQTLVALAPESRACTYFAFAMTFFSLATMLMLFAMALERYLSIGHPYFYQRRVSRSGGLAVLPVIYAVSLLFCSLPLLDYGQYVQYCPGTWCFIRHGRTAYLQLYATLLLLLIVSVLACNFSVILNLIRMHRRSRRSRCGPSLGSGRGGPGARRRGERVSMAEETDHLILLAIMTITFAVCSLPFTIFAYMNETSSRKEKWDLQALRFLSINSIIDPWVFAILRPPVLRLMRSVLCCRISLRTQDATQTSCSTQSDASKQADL
smiles,measurement,setting,value
"O=C(O)c1ccc(CCN2C(=O)CCCN2CCC(O)Cc2cccc(C(F)(F)F)c2)cc1 (stereo not drawn) [IAH-H001a, 4-[2-(2-{3-hydroxy-4-[3-(trifluoromethyl)-phenyl]butyl}-6-oxotetrahydropyridazin-1-yl)ethyl]benzoic acid]",ratio of Ki values human EP3/human EP4,human EP3 receptor,≥ 45000
same,intraocular pressure after instillation compared with before instillation,crab-eating monkeys,significant intraocular pressure lowering action
same,diarrhea score and bloody stool score compared with the solvent group,[1],significantly improved and suppressed
same,reduction of the large intestine weight compared with the solvent group,[1],significantly suppressed
same,ratio of Ki values human EP2/human EP4,human EP2 receptor,15000
same,ratio of Ki values human EP1/human EP4,human EP1 receptor,≥ 80000
